Results on one compound are retold here after ChEMBL document CHEMBL1828549, “Novel C-4'' modified azithromycin analogs with remarkably enhanced activity against erythromycin-resistant Streptococcus pneumoniae: the synthesis and antimicrobial evaluation” (2011).

≈ marks a conversion by molar mass, not a printed value.

Experiment [1] deals with Streptococcus pneumoniae. Briefly: Antibacterial activity against erythromycin-susceptible Streptococcus pneumoniae ATCC 49619 by the broth microdilution method. The format is functional. For orientation: Broth dilution looks for growth in wells or tubes with falling amounts of substance.
The subject of experiment [2] is Streptococcus pneumoniae. Nature of the experiment: Antibacterial activity against erythromycin-resistant Streptococcus pneumoniae B1 expressing erm gene by the broth microdilution method. Type of experiment: functional.
Experiment [3] has as its system Streptococcus pneumoniae. Briefly: Antibacterial activity against erythromycin-resistant Streptococcus pneumoniae A22072 expressing mef gene by the broth microdilution method. Type of experiment: functional.
Experiment [4] relates to Streptococcus pneumoniae. Briefly: Antibacterial activity against erythromycin-resistant Streptococcus pneumoniae AB11 expressing erm and mef gene by the broth microdilution method. The format is functional.
Experiment [5] deals with Staphylococcus aureus. Briefly: Antibacterial activity against erythromycin-susceptible Staphylococcus aureus ATCC 25923 by the broth microdilution method. Type of experiment: functional.
For experiment [6], the system named is Staphylococcus aureus. Briefly: Antibacterial activity against penicillin-resistant Staphylococcus aureus by the broth microdilution method. The format is functional.
Experiment [7] concerns Staphylococcus aureus. Nature of the experiment: Antibacterial activity against […] Staphylococcus aureus ATCC 29213 by the broth microdilution method. Type of experiment: functional.
Experiment [8] deals with Streptococcus pneumoniae. Briefly: Ratio of erythromycin-A MIC to compound MIC for erythromycin-resistant Streptococcus pneumoniae A22072 expressing mef gene. Type of experiment: functional.
Experiment [9] deals with Streptococcus pneumoniae. Briefly: Ratio of azithromycin MIC to compound MIC for erythromycin-resistant Streptococcus pneumoniae A22072 expressing mef gene. The format is functional.
For experiment [10], the system named is Streptococcus pneumoniae. Briefly: Ratio of MIC for Streptococcus pneumoniae AB11 expressing erm and mef gene to MIC of reference compound for the same strain.
The test system of experiment [11] is Streptococcus pneumoniae. Nature of the experiment: Ratio of MIC for erythromycin-resistant Streptococcus pneumoniae B1 expressing erm gene to MIC of reference compound for the same strain.

By MIC is commonly meant the least concentration at which growth counts as inhibited. Read a high MIC as a need for much substance. Take `CC[C@H]1OC(=O)[C@H](C)[C@@H](O[C@H]2C[C@@](C)(OC)[C@@H](OC(=O)NCCCCNC(=O)c3cc([N+](=O)[O-])cc([N+](=O)[O-])c3)[C@H](C)O2)[C@H](C)[C@@H](O[C@@H]2O[C@H](C)C[C@H](N(C)C)[C@H]2O)[C@](C)(O)C[C@@H](C)CN(C)[C@H](C)[C@H]2OC(=O)O[C@@]21C`: the MIC amounted to 0.12 µg/mL (≈ 0.111 µM) in the experiment with Streptococcus pneumoniae [1]; 1 µg/mL (≈ 0.923 µM) against Streptococcus pneumoniae [2]; 0.12 µg/mL (≈ 0.111 µM) with Streptococcus pneumoniae [3]; 8 µg/mL (≈ 7.39 µM) in the experiment with Streptococcus pneumoniae [4]; 2 µg/mL (≈ 1.85 µM) in the experiment on Staphylococcus aureus [5]; 16 µg/mL (≈ 14.8 µM) with Staphylococcus aureus [6]. Besides, in the experiment with Staphylococcus aureus [7], it took 4 µg/mL (≈ 3.69 µM) to inhibit growth (MIC). Also, the Ratio was 64 in the experiment on Streptococcus pneumoniae [8], 32 in the experiment on Streptococcus pneumoniae [9], 32 in the experiment on Streptococcus pneumoniae [10] and 128 in the experiment with Streptococcus pneumoniae [11].
